Measured values as given in patent publication US20250099420A1, “SMALL MOLECULE MODULATORS OF GPR139 COMPLEX” (University of Florida Research Foundation, Incorporated, priority 2022, published 2025).

Tests used:
[1] = test system: parental HEK cells; assay: HEK parental Antagonist Counterscreen Assay (non-transfected cells, acetylcholine control); format: cell-based; conditions: for EC50: Homo sapiens, HEK293, acetylcholine as control, scientific notation, molarity
[2] = biological target: T1, GPR139 (Homo sapiens, UniProt Q6DWJ6); assay: GPR139 Agonist titration / agonist counterscreen assay (calcium detection, HEK-GPR139 cells); format: cell-based; parameters: expressed in transfected cells; host or cells: HEK Aequorin cells, Maxcyte transient transfection; conditions: agonist counterscreen of the antagonists; for EC50: scientific notation, molarity, read-out: GRP139 Agonist activity EC50
T1 sequence (Q6DWJ6 1-353): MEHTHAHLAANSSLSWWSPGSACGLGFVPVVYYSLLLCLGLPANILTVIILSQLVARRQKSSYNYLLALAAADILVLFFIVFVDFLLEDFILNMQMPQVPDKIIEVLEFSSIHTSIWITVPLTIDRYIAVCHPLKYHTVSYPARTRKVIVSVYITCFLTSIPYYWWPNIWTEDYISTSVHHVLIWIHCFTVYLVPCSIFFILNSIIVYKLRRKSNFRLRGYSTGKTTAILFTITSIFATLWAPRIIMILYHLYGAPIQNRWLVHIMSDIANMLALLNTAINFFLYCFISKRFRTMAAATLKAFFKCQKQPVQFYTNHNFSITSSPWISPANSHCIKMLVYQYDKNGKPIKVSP
Description: GPR activity was assessed using a calcium detection assay. […] Negative control samples were treated with DMSO. […] Intracellular calcium was measured using Calcium 5.

[3] = biological target: T1, GPR139; assay: GPR139 Antagonist titration assay (calcium detection, HEK-GPR139 cells, vs EC80 of S-JNJ-63533054); conditions: for GPR139 Antagonist Activity Averaged Max % Response (±St. Dev.): activity relative to known control; for GPR139 Antagonist Activity Lipophilic Efficiency (logD): based on logD; for GPR139 Antagonist Activity Lipophilic Efficiency (logP): based on logP; for GPR139 Antagonist Activity Hill Slope: fitted dose-response curve
[4] = biological target: T1, GPR139; assay: [3H]JNJ-63533054 radioligand competition binding assay on membranes of HEK293T/17 cells; parameters: HA signal peptide (HASP) (N); expressed in transfected cells; host or cells: HEK293T/17 cells (membrane preparation); conditions: for inhibition at 10 µM: 10 μM of the indicated compound, (10 μM) JNJ-63533054 as printed in title; for Ki: Ki=IC50/(1+C/Kd), membranes of HEK293T/17 cells expressing human GPR139, read-out: Ki ± SEM
Description: Eighteen compounds were selected for additional study. The compounds were re-synthesized and tested in radioligand binding competition assays for their ability to displace [^3H]-labeled reference agonist JNJ-63533054 on GPR139. The GPR139 construct used (pCDNA3.1-HASP-HA-GPR139) contained an N-terminal HA signal peptide (HASP), followed by an HA tag and human GPR139 (NM_001002911.4). HEK293T/17 cells were maintained in Dulbecco's modified Eagle's medium with 10% (v/v) fetal bovine serum, nonessential amino acids, and 1 mM sodium pyruvate.
Competition binding assay: Radioligand binding assay used human GPR139 expressed in HEK293T/17 cells. HEK293T/17 cells were transfected pCDNA3.1-HASP-HA-GPR139. 48 h after, cells were detached from plates by pipetting with PBS, centrifuged at 500×g for 5 min, and then the fluid was aspirated away. The cell pellets were frozen with liquid nitrogen and stored at −80° C. Pellets were homogenized in TE buffer (50 mM Tris-HCl, pH 7.4, 5 mM EDTA) and centrifuged at 1000×g at 4° C. for 5 min. Supernatant was collected and recentrifuged at 30,000×g at 4° C. for 30 min. The pellet was rehomogenized in TE buffer and incubated for 60 minutes at room temperature with eight concentrations of [^3H]JNJ-63533054 (specific activity 24.7 Ci/mmol) ranging from 0.024 nM to 400 nM. The binding reaction was terminated by filtration through GF/C filter (Waterman) followed by washes with cold TE buffer. Filters were dried in a hood overnight followed by the addition of scintillation fluid. Bound radioactivity was counted on a Hidex 600 liquid scintillation counter. […] Nonspecific binding was determined with 10 μM JNJ-63533054. The Kd values of the radioligands and IC50 of the antagonist were calculated by Graphpad Prism. Ki values were calculated as Ki=IC50/(1+C/Kd), where C is concentration of the radioligand.
Various concentrations of selected ligands were then added in the presence of 10 nM [^3H]-JNJ-63533054 and their ability to displace [^3H]labeling on cellular membranes was assessed. FIGS. 3B and 3C present representative data obtained in these experiments. […] The results of these experiments are presented in the Table 3 and confirm selective binding the compounds to GPR139 thereby validating their interaction with the intended target.

Structure (SMILES)	GRP139 Agonist activity Averaged Max % Response (±St. Dev.) [2]	EC50 [2]	EC50 [3]	GPR139 Antagonist Activity Ligand Efficiency [3]	GPR139 Antagonist Activity Averaged Max % Response (±St. Dev.) [3]	GPR139 Antagonist Activity Lipophilic Efficiency (logD) [3]	GPR139 Antagonist Activity Lipophilic Efficiency (logP) [3]	GPR139 Antagonist Activity Hill Slope [3]	inhibition at 10 µM [4]	Ki [4]	HEK antagonist activity Averaged Max % Response (±St. Dev.) [1]	EC50 [1]
CCN1C(=O)c2cccc3c(S(=O)(=O)Nc4cccc(F)c4)ccc1c23 [SR-01000110577]	5.61 ± 4.33%	> 14.1 µM	6.9 µM	0.28	81.68 ± 2.49%	2.48	2.23	0.62	-117 ± 2.89%	8.03 ± 0.18 µM	24.57 ± 3.75%	> 14.1 µM
COc1ccc(-c2noc(CN3CCCN(c4ccc(F)cc4)CC3)n2)c(OC)c1OC [SR-01000169333]	2.42 ± 7.61%	> 14.1 µM	8.4 µM	0.22	66.19 ± 8.60%	1.64	1.37	1.11	64.5 ± 1.23%	4.09 ± 0.09 µM	9.54 ± 10.14%	> 14.1 µM
CCOC(=O)c1ccc2nc(C)c3c(c2c1)OC(C(C)(Cl)Br)C3 (centres unmarked) [SR-01000220077]	29.53 ± 3.67%	> 14.1 µM	4.7 µM	0.32	82.15 ± 3.63%	1.23	1.20	0.74	77.8 ± 5%	7.31 ± 0.16 µM	5.29 ± 23.62%	> 14.1 µM
CCOC(=O)c1c(C)nc2c(c1-c1ccc(F)cc1)C(=O)CC(c1ccc(Cl)cc1)C2 (centres unmarked) [SR-01000419112]	0.45 ± 5.31%	> 11.7 µM	7.8 µM	0.23	67.9 ± 10.41%	0.44	0.44	1.28	102 ± 4.88%	0.98 ± 0.02 µM	18.74 ± 4.66%	> 11.7 µM
O=C(NCCC1=CCCCC1)N1c2ccccc2Sc2ccccc21 [SR-01000452455-1 analog]	–	–	–	–	–	–	–	–	107 ± 1.95%	1.68 ± 0.04 µM	–	–
O=C(Nc1cccc(-c2nnco2)c1)C1c2ccccc2Oc2ccccc21 [SR-01000907648-1 analog]	–	–	–	–	–	–	–	–	65.5 ± 0.72%	6.07 ± 0.14 µM	–	–
CC(=O)Nc1ccc(Sc2ccc(S(=O)(=O)Nc3ccc(C)cc3C)cc2[N+](=O)[O-])cc1 [SR-07000003837-2 analog 1]	–	–	–	–	–	–	–	–	88.7 ± 21.1%	9.45 ± 0.21 µM	–	–
CN1CCN(S(=O)(=O)c2ccc(Sc3ccc(Cl)cc3)c([N+](=O)[O-])c2)CC1 [SR-07000003837-2 analog 2]	–	–	–	–	–	–	–	–	51.9 ± 5.47%	1.29 ± 0.03 µM	–	–

Now from value to molecule, other results behind:

GRP139 Agonist activity Averaged Max % Response (±St. Dev.) [2]	EC50 [2]	EC50 [3]	GPR139 Antagonist Activity Ligand Efficiency [3]	GPR139 Antagonist Activity Averaged Max % Response (±St. Dev.) [3]	GPR139 Antagonist Activity Lipophilic Efficiency (logD) [3]	GPR139 Antagonist Activity Lipophilic Efficiency (logP) [3]	GPR139 Antagonist Activity Hill Slope [3]	inhibition at 10 µM [4]	Ki [4]	Structure (SMILES)	HEK antagonist activity Averaged Max % Response (±St. Dev.) [1]	EC50 [1]
3.53 ± 6.53%	> 14.1 µM	6.3 µM	0.33	86.87 ± 1.46%	1.71	1.71	0.88	77.7 ± 1.19%	9.98 ± 0.23 µM	O=C(CCCC(=O)OCC(Cl)=C(Cl)Cl)Nc1ccccc1F [SR-01000195221]	28.17 ± 14.51%	> 14.1 µM
7.91 ± 4.93%	> 14.1 µM	6.9 µM	0.31	82.77 ± 1.38%	1.07	1.07	1.77	56.3 ± 7.8%	146 ± 0.003 µM	CCCOC(=O)c1ccc(NC(=O)CSc2ccccc2)cc1 [SR-01000244770]	15.65 ± 7.33%	> 14.1 µM
4.38 ± 3.28%	> 14.1 µM	4.3 µM	0.42	63.84 ± 2.29%	0.78	0.78	0.87	54.3 ± 5.98%	0.13 ± 0.01 µM	Cc1cc(I)ccc1NC(=O)CSc1cccs1 [SR-01000253143]	22.82 ± 1.84%	> 14.1 µM
45.23 ± 2.15%	> 14.1 µM	2.3 µM	0.34	102.3 ± 0.93%	1.45	1.45	1.14	35.6 ± 21.2%	7.14 ± 0.16 µM	Cc1cccc(NC(=O)CCC(=O)OCc2ccc(Br)cc2)c1 [SR-01000258561]	50.40 ± 13.43%	13.8 µM
4.67 ± 4.93%	> 14.1 µM	2.1 µM	0.31	84.30 ± 2.68%	1.99	1.99	0.99	59.3 ± 7.51%	4.91 ± 1.1 µM	O=C(CS(=O)(=O)c1ccccc1)Nc1ccc(Oc2ccccc2)cc1 [SR-01000263867]	20.24 ± 7.73%	> 14.1 µM
10.58 ± 2.83%	> 9.8 µM	7.2 µM	0.26	74.1 ± 13.55%	0.17	0.17	1.98	65 ± 3.44%	1.81 ± 0.04 µM	CCOC(=O)C(CC)Oc1ccc2c(C)c(Cc3ccccc3)c(=O)oc2c1 (centres unmarked) [SR-01000421299]	7.76 ± 14.27%	> 9.8 µM
−2.6E+0 ± 5.95 ^ %	> 16.2 µM	8.7 µM	0.32	79.69 ± 2.61%	1.04	1.04	1.19	22 ± 2.59%	13.3 ± 0.3 µM	CC(=O)N1N=C(c2ccc(C)cc2)CC1c1ccccc1Cl (centres unmarked) [SR-01000462122]	17.80 ± 3.32%	> 16.2 µM
